Experimental data reported in US11013726B2 (Arbutus Biopharma Corporation, priority 2016, dated 2021).

What follows are compounds tested on HBsAg (assay: HBsAg assay). Conditions: Hepatitis B virus, HepG2.2.15, 144 h, read-out: sAg EC50, μM, HepG2.2.15 cells, day 6.
Assay type: cell-based, hepatitis B virus
Outline: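 HepG2.2.15 cells were treated with serially diluted compounds (0.5% DMSO), with medium and compound renewed after 2-3 days. Secreted HBsAg measured at day 6 by chemiluminescence immunoassay; EC50 from dose-response curves. Viability assessed in parallel by CellTiter-Glo.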

Point of comparison: `COc1cc2c(cc1Cl)-c1cc(=O)c(C(=O)O)cn1C(CO)CO2` (stereo not shown) [Example 9], EC50 8.6 µM. Against it:
- COc1cc2c(cc1Cl)-c1cc(=O)c(C(=O)O)cn1C(CC(C)C)CO2 (stereo not shown) [Example 5, 2-Chloro-7-isobutyl-3-methoxy-11-oxo-6,7-dihydro-11H-benzo[f]pyrido[1,2-d][1,4]oxazepine-10-carboxylic acid] — 9.5-fold lower, 0.91 µM
- CC(C)[C@@H]1COc2cc(OCCOCCBr)c(Cl)cc2-c2cc(=O)c(C(=O)O)cn21 [Example 41, (R)-3-(2-(2-Bromoethoxy)ethoxy)-2-chloro-7-isopropyl-11-oxo-6,7-dihydro-11H-benzo[f]pyrido[1,2-d][1,4]oxazepine-10-carboxylic acid] — 86-fold lower, 0.1 µM
- COCCCOc1cc2c(cc1Cl)-c1cc(=O)c(NC(=O)OCc3ccccn3)cn1C(C(C)(C)C)C2 (stereo not shown) [Example 123, Pyridin-2-ylmethyl (6-(tert-butyl)-10-chloro-9-(3-methoxypropoxy)-2-oxo-6,7-dihydro-2H-pyrido[2,1-a]isoquinolin-3-yl)carbamate] — 3.6-fold lower, 2.4 µM
- COc1ccc2c(c1)OCC(C(C)C)n1cc(C(=O)O)c(=O)cc1-2 (stereo not shown) [Example 16, 7-Isopropyl-3-methoxy-11-oxo-6,7-dihydro-11H-benzo[f]pyrido[1,2-d][1,4]oxazepine-10-carboxylic acid] — 2.5-fold lower, 3.5 µM
- COCCCOc1cc2c(cc1Cl)-c1cc(=O)ccn1[C@H](C(C)C)CO2 [Example 136, (R)-2-Chloro-7-isopropyl-3-(3-methoxypropoxy)-6,7-dihydro-11H-benzo[f]pyrido[1,2-d][1,4]oxazepin-11-one] — 15-fold lower, 0.57 µM
- COCCCCOc1cc2c(cc1Cl)-c1cc(=O)c(C(=O)O)cn1[C@H](C(C)C)CO2 [Example 38, (R)-2-Chloro-7-isopropyl-3-(4-methoxybutoxy)-11-oxo-6,7-dihydro-11H-benzo[f]pyrido[1,2-d][1,4]oxazepine-10-carboxylic acid] — 510-fold lower, 0.017 µM
- COCCCOc1cc2c(nc1OC)-c1cc(=O)c(-c3nc(-c4ccccc4)no3)cn1[C@H](C(C)C)C2 [Example 112, (S)-6-Isopropyl-2-methoxy-3-(3-methoxypropoxy)-9-(3-phenyl-1,2,4-oxadiazol-5-yl)-5,6-dihydro-10H-pyrido[1,2-h][1,7]naphthyridin-10-one] — 9.9-fold lower, 0.87 µM
- CC(C)COc1cc2c(nc1Cl)-c1cc(=O)c(C(=O)O)cn1[C@H](C(C)C)CO2 [Example 79, (R)-2-Chloro-3-isobutoxy-7-isopropyl-11-oxo-6,7-dihydro-11H-dipyrido[1,2-d:2′,3′-f][1,4]oxazepine-10-carboxylic acid] — 11-fold lower, 0.79 µM
- CC(C)[C@@H]1COc2cc(O)c(Cl)nc2-c2cc(=O)c(C(=O)O)cn21 [Example 78, (R)-2-Chloro-3-hydroxy-7-isopropyl-11-oxo-6,7-dihydro-11H-dipyrido[1,2-d:2′,3′-f][1,4]oxazepine-10-carboxylic acid] — 1.7-fold lower, 5 µM
- CCOC(=O)c1cn2c(cc1=O)-c1nc(OC)c(OCCCOC)cc1CC2(CC)CC [Example 161, Ethyl 6,6-diethyl-2-methoxy-3-(3-methoxypropoxy)-10-oxo-5,10-dihydro-6H-pyrido[1,2-h][1,7]naphthyridine-9-carboxylate] — 86-fold lower, 0.1 µM
- COCCCOc1cc2c(cc1OC)-c1cc(=NOC)c(C(=O)OC)cn1C(C(C)C)C2 (stereo not shown) [Example 148, Methyl 6-isopropyl-10-methoxy-2-(methoxyimino)-9-(3-methoxypropoxy)-6,7-dihydro-2H-pyrido[2,1-a]isoquinoline-3-carboxylate] — 1.5-fold higher, 13 µM
- Cc1c2n(cc(C(=O)O)c1=O)C(C(C)(C)C)Cc1cc3c(cc1-2)OCCCO3 (stereo not shown) [Example 100, 6-(Tert-butyl)-1-methyl-2-oxo-6,7,11,12-tetrahydro-2H,10H-[1,4]dioxepino[2,3-g]pyrido[2,1-a]isoquinoline-3-carboxylic acid] — within 1.5-fold, 10 µM
- COc1cc2c(cc1F)-c1cc(=O)c(C(=O)O)cn1C(C(C)C)CO2 (stereo not shown) [Example 15, 2-Fluoro-7-isopropyl-3-methoxy-11-oxo-6,7-dihydro-11H-benzo[f]pyrido[1,2-d][1,4]oxazepine-10-carboxylic acid] — 9.6-fold lower, 0.9 µM
- COCCCOc1cc2c(cc1Cl)-c1cc(=O)c(-c3ncccn3)cn1C(C(C)(C)C)C2 (stereo not shown) [Example 132, 6-Tert-butyl-10-chloro-9-(3-methoxypropoxy)-3-(pyrimidin-2-yl)-6H,7H-pyrido[2,1-a]isoquinolin-2-one] — 110-fold lower, 0.078 µM
- CC(C)(C)C1Cc2cc3c(cc2-c2cc(=O)c(C(=O)O)cn21)OCC(O)CO3 (stereo not shown) [Example 103, 6-(Tert-butyl)-11-hydroxy-2-oxo-6,7,11,12-tetrahydro-2H,10H-[1,4]dioxepino[2,3-g]pyrido[2,1-a]isoquinoline-3-carboxylic acid] — 170-fold lower, 0.05 µM
- COCC1(COC)COc2cc3c(cc2OC1)-c1cc(=O)c(C(=O)O)cn1C(C(C)(C)C)C3 (stereo not shown) [Example 99, 6-(Tert-butyl)-11,11-bis(methoxymethyl)-2-oxo-6,7,11,12-tetrahydro-2H,10H-[1,4]dioxepino[2,3-g]pyrido[2,1-a]isoquinoline-3-carboxylic] — 18-fold lower, 0.49 µM
- COCCN(C)c1cc2c(cc1Cl)-c1cc(=O)c(C(=O)O)cn1[C@H](C(C)C)CO2 [Example 65, (R)-2-Chloro-7-isopropyl-3-((2-methoxyethyl)(methyl)amino)-11-oxo-6,7-dihydro-11H-benzo[f]pyrido[1,2-d][1,4]oxazepine-10-carboxylic acid] — 32-fold lower, 0.27 µM
- COCCCOc1cc2c(nc1Cl)-c1cc(=O)c(C(=O)O)cn1C1(COC1)CO2 [Example 71, 2-Chloro-3-(3-methoxypropoxy)-1-oxo-6H,11H-spiro[dipyrido[1,2-d:2′,3′-f][1,4]oxazepine-7,3′-oxetane]-10-carboxylic acid] — 3.5-fold higher, 30 µM
- COCCCOc1cc2c(nc1OC)-c1cc(=O)c(-c3nc(C)no3)cn1[C@H](C(C)C)C2 [Example 111, (S)-6-isopropyl-2-methoxy-3-(3-methoxypropoxy)-9-(3-methyl-1,2,4-oxadiazol-5-yl)-5,6-dihydro-10H-pyrido[1,2-h][1,7]naphthyridin-10-one] — 30-fold lower, 0.29 µM
- COCCCOc1cc2c(cc1Cl)-c1cc(=O)c(C(=O)O)cn1[C@H](C(C)C)CO2 [Example 27, (R)-2-Chloro-7-isopropyl-3-(3-methoxypropoxy)-11-oxo-6,7-dihydro-11H-benzo[f]pyrido[1,2-d][1,4]oxazepine-10-carboxylic acid] — 780-fold lower, 0.011 µM
- COCCCOc1cc2c(nc1Cl)-c1cc(=O)c(C(=O)O)cn1C1(CCSCC1)CO2 [Example 74, 2-Chloro-3-(3-methoxypropoxy)-11-oxo-2′,3′,5′,6′-tetrahydro-6H,11H-spiro[dipyrido[1,2-d:2′,3′-f][1,4]oxazepine-7,4′-thiopyran]-10-carboxylic acid] — 1.7-fold lower, 5 µM
- COCCCOc1cc2c(nc1OC)-c1cc(=O)c(C(=O)O)cn1C(C)(C(C)C)C2 (stereo not shown) [Example 155, 6-Isopropyl-2-methoxy-3-(3-methoxypropoxy)-6-methyl-10-oxo-5,10-dihydro-6H-pyrido[1,2-h][1,7]naphthyridine-9-carboxylic acid] — 4300-fold lower, 0.002 µM
- CC(C)[C@@H]1COc2cc(OCC(F)(F)F)c(Cl)cc2-c2cc(=O)c(C(=O)O)cn21 [Example 34, (R)-2-Chloro-7-isopropyl-11-oxo-3-(2,2,2-trifluoroethoxy)-6,7-dihydro-11H-benzo[f]pyrido[1,2-d][1,4]oxazepine-10-carboxylic acid] — 100-fold lower, 0.086 µM
- COCCCOc1cc2c(cc1Cl)-c1cc(=O)c(-c3ncccc3C)cn1[C@H](C(C)C)CO2 [Example 137, (R)-2-Chloro-7-isopropyl-3-(3-methoxypropoxy)-10-(3-methylpyridin-2-yl)-6,7-dihydro-11H-benzo[f]pyrido[1,2-d][1,4]oxazepin-11-one] — within 1.5-fold, 10 µM
- COCCCOc1cc2c(cc1Cl)-c1cc(=O)c(C(=O)O)cn1C(C(C)C)CO2 (stereo not shown) [Example 33, 2-Chloro-7-isopropyl-3-(3-methoxypropoxy)-11-oxo-6,7-dihydro-11H-benzo[f]pyrido[1,2-d][1,4]oxazepine-10-carboxylic acid] — 300-fold lower, 0.029 µM

Same assay, conditions: read-out: sAg EC50; HepG2.2.15 cells, day 6

Point of comparison: `CC(C)(C)C1Cc2cc3c(cc2-c2cc(=O)c(C(=O)O)cn21)OCC1(COC1)CO3` (single isomer, unassigned) [Example 94, 6′-(Tert-butyl)-2′-oxo-6′,7′-dihydro-2′H,10′H,12′H-spiro[oxetane-3,11′-[1,4]dioxepino[2,3-g]pyrido[2,1-a]isoquinoline]-3′-carboxylic acid], EC50 2.2 µM. Against it:
- COCCCOc1cc2c([nH]c1=O)-c1cc(=O)c(C(=O)O)cn1C(C(C)C)C2 (single isomer, unassigned) [Example 166, 6-Isopropyl-3-(3-methoxypropoxy)-2,10-dioxo-2,5,6,10-tetrahydro-1H-pyrido[1,2-h][1,7]naphthyridine-9-carboxylic acid] — 4.9-fold lower, 0.45 µM
